Molecules are shown by their SMILES. Structures can show the parent of a compound that is named as a salt.

Chain of human CXCR3-A receptor (P49682 whole entry): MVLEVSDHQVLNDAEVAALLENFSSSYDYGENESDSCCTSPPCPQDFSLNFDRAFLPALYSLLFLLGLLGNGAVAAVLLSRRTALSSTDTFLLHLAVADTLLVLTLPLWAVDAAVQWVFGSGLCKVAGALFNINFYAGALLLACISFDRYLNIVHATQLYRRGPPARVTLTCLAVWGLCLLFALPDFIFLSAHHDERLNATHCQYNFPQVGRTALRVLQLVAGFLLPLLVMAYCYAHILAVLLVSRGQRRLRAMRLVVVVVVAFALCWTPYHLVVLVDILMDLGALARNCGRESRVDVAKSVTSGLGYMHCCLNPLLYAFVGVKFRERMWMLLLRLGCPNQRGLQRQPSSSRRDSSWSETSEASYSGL

The target of one experiment is human CXCR3-A receptor (Homo sapiens (Human), UniProt P49682). Put plainly: 125I-CXCL10 competition radioligand binding assay. The conditions noted are these: displacement of 125I-CXCL10 from membranes of CHO cells expressing human recombinant CXCR3-A. The method, boiled down:
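Membranes from a recombinant cell line expressing human CXCR3-A (10-20 μg protein) were incubated with 125I-CXCL10 and test compound for 60 min at 25° C, then filtered onto PEI-soaked GF/B filters and gamma-counted. IC50 and Hill slope came from four-parameter nonlinear fitting of competition curves.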
The IC50 is the concentration that inhibits the measured activity by half. On to `Cc1cc(CN(C[C@H]2CC[C@H](C(=O)O)CC2)C2CCc3cc(Cl)ccc32)ccc1OCCN1C(=O)CN(C)C1=O` (stereo partly drawn) [Example 57, trans-4-[((5-Chloro-indan-1-yl)-{3-methyl-4-[2-(3-methyl-2,5-dioxo-imidazolidin-1-yl)-ethoxy]-benzyl}-amino)-methyl]-cyclohexanecarboxylic acid], for which the IC50 was 200 nM.
The same measure, in the same setting: as for `CCC(c1ccc2c(c1)CCO2)N(Cc1ccc(OCCN2C(=O)CCC2=O)c(C)c1)C[C@H]1CC[C@H](C(=O)O)CC1` (stereo partly drawn) [Example 69, trans-4-[([1-(2,3-Dihydro-benzofuran-5-yl)-propyl]-{4-[2-(2,5-dioxo-pyrrolidin-1-yl)-ethoxy]-3-methyl-benzyl}-amino)-methyl]-cyclohexanecarboxylic acid], the figure is 56 nM.
Still for that read-out and setting: as for `CCc1cc(CN(C[C@H]2CC[C@H](C(=O)O)CC2)C2CCc3c2ccc(F)c3Cl)ccc1OCCN1C(=O)CCC1=O` (stereo partly drawn) [Example 96, trans-4-[((4-Chloro-5-fluoro-indan-1-yl)-{4-[2-(2,5-dioxo-pyrrolidin-1-yl)-ethoxy]-3-ethyl-benzyl}-amino)-methyl]-cyclohexanecarboxylic acid], the figure is 443 nM.
The same measure, in the same setting: to `COc1cc(CN(C[C@H]2CC[C@H](C(=O)O)CC2)C(C)c2ccc3c(c2)CCO3)ccc1C1CC1CN1C(=O)CCC1=O` (stereo partly drawn) [Example 49, trans-4-[([1-(2,3-Dihydro-benzofuran-5-yl)-ethyl]-{4-[2-(2,5-dioxo-pyrrolidin-1-ylmethyl)-cyclopropyl]-3-methoxy-benzyl}-amino)-methyl]-cyclohexanecarboxylic acid] belongs 746 nM; to `Cc1cc(CN(C[C@H]2CC[C@H](C(=O)O)CC2)C(C)c2ccc3c(c2)CCO3)ccc1OCCn1c(=O)ccn(C)c1=O` (stereo partly drawn) [Example 60, trans-4-[([1-(2,3-Dihydro-benzofuran-5-yl)-ethyl]-{3-methyl-4-[2-(3-methyl-2,6-dioxo-3,6-dihydro-2H-pyrimidin-1-yl)-ethoxy]-benzyl}-amino)-methyl]-cyclohexanecarboxylic acid], 345 nM.
Regarding `Cc1cc(CN(C[C@H]2CC[C@H](C(=O)O)CC2)[C@H](C)c2ccc(Cl)cc2)ccc1OCCN1C(=O)CCC1=O` [Example 9, trans-4-[([(R)-1-(4-Chloro-phenyl)-ethyl]-{4-[2-(2,5-dioxo-pyrrolidin-1-yl)-ethoxy]-3-methyl-benzyl}-amino)-methyl]-cyclohexanecarboxylic acid], the IC50 came to 32 nM.
On the same count and under the same terms, as for `COc1cc(CN(C[C@H]2CC[C@H](C(=O)O)CC2)C(C)c2ccc(Cl)c(Cl)c2)ccc1OCCN1C(=O)CCC1=O` (stereo partly drawn) [Example 77, trans-4-[([1-(3,4-Dichloro-phenyl)-ethyl]-{4-[2-(2,5-dioxo-pyrrolidin-1-yl)-ethoxy]-3-methoxy-benzyl}-amino)-methyl]-cyclohexanecarboxylic acid], the figure is 182 nM.
The same measure, in the same setting: to `CCC(c1ccc(Cl)cc1)N(Cc1ccc(OCCn2c(=O)ccn(C)c2=O)c(OC)c1)C[C@H]1CC[C@H](C(=O)O)CC1` (stereo partly drawn) [Example 68, trans-4-[([1-(4-Chloro-phenyl)-propyl]-{3-methoxy-4-[2-(3-methyl-2,6-dioxo-3,6-dihydro-2H-pyrimidin-1-yl)-ethoxy]-benzyl}-amino)-methyl]-cyclohexanecarboxylic acid] belongs 143 nM; to `COc1cc(CN(C[C@H]2CC[C@H](C(=O)O)CC2)[C@@H](C)c2ccc(Cl)cc2)ccc1CCCN1C(=O)CN(C)C1=O` [Example 51, trans-4-[([(S)-1-(4-Chloro-phenyl)-ethyl]-{3-methoxy-4-[3-(3-methyl-2,5-dioxo-imidazolidin-1-yl)-propyl]-benzyl}-amino)-methyl]-cyclohexanecarboxylic acid], 157 nM.
Same read-out and setting: as for `COc1cc(CN(C[C@H]2CC[C@H](C(=O)O)CC2)[C@H]2CCc3cc(Cl)ccc32)ccc1OCCN1C(=O)[C@H]2CC=CC[C@H]2C1=O` [Example 155, trans-4-[(((S)-5-Chloro-indan-1-yl)-{4-[2-((3aS,7aR)-1,3-dioxo-1,3,3a,4,7,7a-hexahydro-isoindol-2-yl)-ethoxy]-3-methoxy-benzyl}-amino)-methyl]-cyclohexanecarboxylic acid; hydrochloride], the figure is 2870 nM; as for `CCC(c1ccc(Cl)cc1)N(Cc1ccc(OCCN2C(=O)CCC2=O)c(OC)c1)C[C@H]1CC[C@H](C(=O)O)CC1` (stereo partly drawn) [Example 63, trans-4-[([1-(4-Chloro-phenyl)-propyl]-{4-[2-(2,5-dioxo-pyrrolidin-1-yl)-ethoxy]-3-methoxy-benzyl}-amino)-methyl]-cyclohexanecarboxylic acid], 62 nM.
In the case of `Cc1cc(CN(C[C@H]2CC[C@H](C(=O)O)CC2)[C@@H](C)c2ccc(Cl)cc2)ccc1OCCN1C(=O)CCC1=O` [Example 7, trans-4-[([(S)-1-(4-Chloro-phenyl)-ethyl]-{4-[2-(2,5-dioxo-pyrrolidin-1-yl)-ethoxy]-3-methyl-benzyl}-amino)-methyl]-cyclohexanecarboxylic acid], the IC50 was 38 nM.
On to `CCc1cc(CN(C[C@H]2CC[C@H](C(=O)O)CC2)[C@@H](C)c2ccc(Cl)c(F)c2)ccc1OCCN1C(=O)CCC1=O` [Example 91, trans-4-[([(S)-1-(4-Chloro-3-fluoro-phenyl)-ethyl]-{4-[2-(2,5-dioxo-pyrrolidin-1-yl)-ethoxy]-3-ethyl-benzyl}-amino)-methyl]-cyclohexanecarboxylic acid], for which the IC50 was found to be 121 nM.
Same read-out and setting: as for `COc1cc(CN(C[C@H]2CC[C@H](C(=O)O)CC2)C2CCc3cc(Cl)c(C)cc32)ccc1OCCN1C(=O)CCC1=O` (stereo partly drawn) [Example 42, trans-4-[((5-Chloro-6-methyl-indan-1-yl)-{4-[2-(2,5-dioxo-pyrrolidin-1-yl)-ethoxy]-3-methoxy-benzyl}-amino)-methyl]-cyclohexanecarboxylic acid], the figure is 87 nM.
Still for that read-out and setting: as for `Cc1cc([C@@H](C)N(Cc2ccc(OCCN3C(=O)CCC3=O)c(C)c2)[C@H]2C[C@@H](C(=O)O)C2)ccc1Cl` [Example 129, cis-3-([(R)-1-(4-Chloro-3-methyl-phenyl)-ethyl]-{4-[2-(2,5-dioxo-pyrrolidin-1-yl)-ethoxy]-3-methyl-benzyl}-amino)-cyclobutanecarboxylic acid], the figure is 105 nM; as for `Cc1cc(CN(C[C@H]2CC[C@H](C(=O)O)CC2)C2CCc3cc(Cl)ccc32)ccc1OCCN1C(=O)CCC1=O` (stereo partly drawn) [Example 29, trans-4-[((5-Chloro-indan-1-yl)-{4-[2-(2,5-dioxo-pyrrolidin-1-yl)-ethoxy]-3-methyl-benzyl}-amino)-methyl]-cyclohexanecarboxylic acid], 150 nM.
Same read-out and setting: to `COc1cc(CN(C[C@H]2CC[C@H](C(=O)O)CC2)C(C)c2ccc3c(c2)CCO3)ccc1OCCn1c(=O)ccn(C)c1=O` (stereo partly drawn) [Example 59, trans-4-[([1-(2,3-Dihydro-benzofuran-5-yl)-ethyl]-{3-methoxy-4-[2-(3-methyl-2,6-dioxo-3,6-dihydro-2H-pyrimidin-1-yl)-ethoxy]-benzyl}-amino)-methyl]-cyclohexanecarboxylic acid] belongs 195 nM.

The same experiment, now with this note: read-out: % at 10 μM; at 10 μM; displacement of 125I-CXCL10.
For `COc1cc(CN([C@H]2C[C@H](C(=O)O)C2)[C@H](C)c2ccc3c(c2)CCC3)ccc1OCCn1c(=O)ccn(C)c1=O` [Example 160, trans-3-(((R)-1-Indan-5-yl-ethyl)-{3-methoxy-4-[2-(3-methyl-2,6-dioxo-3,6-dihydro-2H-pyrimidin-1-yl)-ethoxy]-benzyl}-amino)-cyclobutanecarboxylic acid], the inhibition at 10 µM stood at 26%.

The values are drawn from patent publication US9073853B2, “Cycloalkane carboxylic acid derivatives as CXCR3 receptor antagonists” (Sanofi, priority 2011, dated 2015).
